Results published in article PMC7889231 (Journal of Enzyme Inhibition and Medicinal Chemistry, 2021).
Where two headings read alike, the source gives them in different places. Each block holds one compound with its values, some of them ahead of it.

Assays:
HCT-116 = assay: MTT anti-proliferative assay, HCT-116; assay type: cell-based, human; conditions: mean ± SD of three experiments, read-out: IC50 HCT-116
[1] = tested on: HepG-2, HCT-116, and MCF-7; assay: MTT anti-proliferative assay, ranges stated over several cell lines; assay type: cell-based; conditions: Homo sapiens; range over HepG-2, HCT-116 and MCF-7 and over the listed compounds; read-out: IC50 values ranging (all tested cell lines)
HepG-2 = assay: MTT anti-proliferative assay, HepG-2; assay type: cell-based, human; conditions: mean ± SD of three experiments, read-out: IC50 HepG-2
MCF-7 = assay: MTT anti-proliferative assay, MCF-7; assay type: cell-based, human; conditions: Homo sapiens, MCF7; MTT; mean ± SD of three experiments; read-out: IC50 MCF-7

Structure (SMILES): COc1ccc2nc(Cl)c(C3CC(c4ccc(N)cc4)=NO3)cc2c1 (stereo not shown) [Compound 12, 4-[5–(2-Chloro-6-methoxyquinolin-3-yl)-4,5-dihydroisoxazol-3-yl]aniline]
IC50 (HCT-116; Homo sapiens, HCT-116, MTT): 40.5 ± 2.4 µM
melting point: 127 to 128 °C
IC50 [1]: 22.4 to 45.5 µM
IC50 (HepG-2; Homo sapiens, HepG2, MTT): 35.4 ± 1.8 µM
IC50 (MCF-7): 45.5 ± 2.8 µM

Structure (SMILES): COc1ccc2nc(Cl)c(C3CC(c4ccc(Cl)cc4)=NN3C(N)=O)cc2c1 (stereo not shown) [Compound 17, 5–(2-Chloro-6-methoxyquinolin-3-yl)-3–(4-chlorophenyl)-4,5-dihydro-1H-pyrazole-1-carboxamide]
IC50 (HCT-116; Homo sapiens, HCT-116, MTT): 11.4 ± 0.4 µM
melting point: 135 to 136 °C
IC50 [1]: 10.2 to 17.6 µM
IC50 (HepG-2; Homo sapiens, HepG2, MTT): 12.7 ± 0.5 µM
IC50 (MCF-7): 15.9 ± 0.6 µM

Structure (SMILES): COc1ccc2nc(Cl)c(-c3cc(-c4ccc(N)cc4)nc(=S)[nH]3)cc2c1 [Compound 27, 4–(4-Aminophenyl)-6–(2-chloro-6-methoxyquinolin-3-yl)pyrimidine-2(1H)-thione]
IC50 (HCT-116; Homo sapiens, HCT-116, MTT): 22.4 ± 0.5 µM
melting point: 146 to 147 °C
IC50 (HepG-2; Homo sapiens, HepG2, MTT): 16.3 ± 0.4 µM
IC50 (MCF-7): 24.3 ± 0.9 µM

Structure (SMILES): COc1ccc2nc(Cl)c(C3CC(c4cc(OC)c(OC)c(OC)c4)=NN3)cc2c1 (stereo not shown) [Compound 10, 2-Chloro-6-methoxy-3-[3–(3,4,5-trimethoxyphenyl)-4,5-dihydro-1H-pyrazol-5-yl]quinoline]
IC50 (HCT-116; Homo sapiens, HCT-116, MTT): 15.4 µM
IC50 (HCT-116; MTT): 17.4 ± 1.1 µM
melting point: 114 to 115 °C
IC50 (HepG-2; Homo sapiens, HepG2, MTT): 17.4 µM
IC50 (HepG-2; MTT): 15.4 ± 0.9 µM
IC50 (MCF-7): 25.1 ± 1.2 µM

Structure (SMILES): COc1ccc2nc(Cl)c(C3CC(c4cc(OC)c(OC)c(OC)c4)=NO3)cc2c1 (stereo not shown) [Compound 13, 5–(2-Chloro-6-methoxyquinolin-3-yl)-3–(3,4,5-trimethoxyphenyl)-4,5-dihydroisoxazole]
IC50 (HCT-116; Homo sapiens, HCT-116, MTT): 12.9 µM
IC50 (HCT-116; MTT): 9.96 ± 0.3 µM
melting point: 133 to 134 °C
IC50 (HepG-2; Homo sapiens, HepG2, MTT): 9.96 µM
IC50 (HepG-2; MTT): 12.9 ± 0.6 µM
IC50 (MCF-7): 17 ± 1.2 µM

Structure (SMILES): COc1ccc2nc(Cl)c(-c3cc(-c4cc(OC)c(OC)c(OC)c4)nc(N)n3)cc2c1 [Compound 31, 4–(2-Chloro-6-methoxyquinolin-3-yl)-6–(3,4,5-trimethoxyphenyl)pyrimidin-2-amine]
IC50 (HCT-116; Homo sapiens, HCT-116, MTT): 10.5 ± 0.4 µM
melting point: 162 to 163 °C
IC50 (HepG-2; Homo sapiens, HepG2, MTT): 9.45 ± 0.5 µM
IC50 (MCF-7): 15.2 ± 0.7 µM

Second part, led by results:

IC50 (HCT-116; Homo sapiens, HCT-116, MTT): 28.6 ± 1.7 µM
melting point: 120 to 121 °C
IC50 [1]: 22.4 to 45.5 µM
IC50 (MCF-7): 37.3 ± 2.1 µM
Structure (SMILES): COc1ccc2nc(Cl)c(/C=C/C(=O)c3ccc(N)cc3)cc2c1 [Compound 6, (E)-1–(4-Aminophenyl)-3–(2-chloro-6-methoxyquinolin-3-yl)prop-2-en-1-one]
IC50 (HepG-2; Homo sapiens, HepG2, MTT): 32.9 ± 2.1 µM

IC50 (HCT-116; Homo sapiens, HCT-116, MTT): 25.1 ± 1.2 µM
melting point: 127 to 128 °C
IC50 (MCF-7): 16.9 ± 1.2 µM
Structure (SMILES): COc1ccc2nc(Cl)c(/C=C/C(=O)c3cc(OC)c(OC)c(OC)c3)cc2c1 [Compound 7, (E)-3–(2-Chloro-6-methoxyquinolin-3-yl)-1–(3,4,5-trimethoxyphenyl)prop-2-en-1-one]
IC50 (HepG-2; Homo sapiens, HepG2, MTT): 23.6 ± 1.3 µM

IC50 (HCT-116; Homo sapiens, HCT-116, MTT): 16.6 µM
IC50 (HCT-116; MTT): 17.4 ± 1 µM
melting point: 122 to 123 °C
IC50 (MCF-7): 20.5 ± 1.1 µM
Structure (SMILES): COc1ccc2nc(Cl)c(C3CC(c4ccc(N)cc4)=NN3)cc2c1 (stereo not shown) [Compound 9, 4-[5–(2-Chloro-6-methoxyquinolin-3-yl)-4,5-dihydro-1H-pyrazol-3-yl]aniline]
IC50 (HepG-2; Homo sapiens, HepG2, MTT): 17.4 µM
IC50 (HepG-2; MTT): 16.6 ± 0.8 µM

IC50 (HCT-116; Homo sapiens, HCT-116, MTT): 9.3 µM
IC50 (HCT-116; MTT): 8.87 ± 0.3 µM
melting point: 121 to 122 °C
IC50 (MCF-7): 13.9 ± 0.3 µM
Structure (SMILES): COc1ccc2nc(Cl)c(C3CC(c4cc(OC)c(OC)c(OC)c4)=NN3C(N)=S)cc2c1 (stereo not shown) [Compound 16, 5–(2-Chloro-6-methoxyquinolin-3-yl)-3–(3,4,5-trimethoxyphenyl)-4,5-dihydro-1H-pyrazole-1-carbothioamide]
IC50 (HepG-2; Homo sapiens, HepG2, MTT): 8.87 µM
IC50 (HepG-2; MTT): 9.3 ± 0.3 µM

IC50 (HCT-116; Homo sapiens, HCT-116, MTT): 19.7 ± 1.3 µM
melting point: 145 to 146 °C
IC50 (MCF-7): 22.8 ± 1.4 µM
Structure (SMILES): COc1ccc2nc(Cl)c(C3CC(c4ccc(Cl)cc4)=NO3)cc2c1 (stereo not shown) [Compound 11, 5–(2-Chloro-6-methoxyquinolin-3-yl)-3–(4-chlorophenyl)-4,5-dihydroisoxazole]
IC50 (HepG-2; Homo sapiens, HepG2, MTT): 20.5 ± 1 µM
